{"source": "patent US11242549B2", "about": "“Bio-refinery waste utilization for enzyme production using novel penicillium funiculosum MRJ-16 fungal strain” (INDIAN OIL CORPORATION LIMITED, priority 2019, dated 2022)", "test_system": "Penicillium funiculosum MRJ-16 mutant strain", "format": "cell-based", "conditions": "120 hours of fermentation", "protocol": "Fermentation process was carried out using ammonium sulphate (3-5 g/L), KH2PO4 (4-6 g/L), MgSO4.7H2O (0.5-1 g/L), CaCO3 (2.5-5 g/L), Glycerol (2-3 g/L), Corn steep solids (25-35 g/L), cellulose (25-40 g/L) and Tween-80 (1-2 ml/L) dissolved in distilled water. Novel Penicillium funiculosum MRJ-16 mutant strain developed in the laboratory was used for the study. […]\nCultivation of Penicillium funiculosum MRJ-16 mutant strain was conducted under conditions and media composition identical to example no. 1 along with inhibitors at different concentration.", "note": "Read-outs that look alike come from different tables or passages of the source.", "data": [{"smiles": "O=Cc1ccc(CO)o1", "note": "[HMF, hydroxyl methyl furfural]", "values": [{"measurement": "Average FPA/ml", "setting": "inhibitor 0.25% in media", "value": 6.07, "unit": "FPA/ml"}]}, {"smiles": "CC(=O)O", "note": "[Acetic acid, acetic acid]", "values": [{"measurement": "Average FPA/ml", "setting": "inhibitor 0.5% in media", "value": 6.49, "unit": "FPA/ml"}]}, {"smiles": "O=Cc1ccco1", "note": "[Furfural, furfural]", "values": [{"measurement": "Average FPA/ml", "setting": "inhibitor 0.25% in media", "value": 6.83, "unit": "FPA/ml"}]}]}
